Source: patent publication EP1458697B1, “BIPHENYLMETHYL-THIAZOLIDINEDIONES AND ANALOGUES AND THEIR USE AS PPAR-GAMMA ACTIVATORS” (Galderma Research & Development, S.N.C., priority 2001, dated 2003)

Assays:
[1] = molecular target: T1, récepteur chimère Gal-PPARγ (LBD) (Homo sapiens, UniProt P37231); experiment: Transactivation test, Hela cells stably transfected with chimeric receptor Gal-PPARγ (LBD), luciferase readout; assay type: cell-based; conditions: M-HeLa, 24 h, compound at 1 microM, percent of activation relative to reference agonist at 1 µM, read-out: % d'activation (à 1 microM) PPARγ
T1 construct: le récepteur chimère Gal-PPARγ (LBD); Gal (fusion partner); expressed in transfected cells; host or cells: HeLa cells, stably transfected
T1 sequence (P37231 238-503 limits assumed): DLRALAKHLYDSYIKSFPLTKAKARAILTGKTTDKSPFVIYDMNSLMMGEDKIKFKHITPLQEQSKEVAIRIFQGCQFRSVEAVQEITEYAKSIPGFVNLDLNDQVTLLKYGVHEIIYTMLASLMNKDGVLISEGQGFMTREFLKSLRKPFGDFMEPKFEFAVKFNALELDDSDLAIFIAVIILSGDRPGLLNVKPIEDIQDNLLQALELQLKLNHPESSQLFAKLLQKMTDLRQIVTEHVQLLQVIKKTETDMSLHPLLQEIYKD
Experimental: L'activité agoniste vis à vis des récepteurs PPARγ des composés selon l'invention peut être évaluée par des tests de transactivation.
(§1) La capacité des molécules à activer et/ou inhiber les récepteurs PPARγ est évaluée à partir de cellules Hela transfectées de manière stable avec le récepteur chimère Gal-PPARγ (LBD).
(§2) Des plaques 96 puits sont ensemencées à raison de 10 000 cellules /100 µl / puit dans du milieu DMEM 10% SDL puis placées 24 heures à 37°C, 7% CO2.
(§3) Pour déterminer l'activité agoniste PPARγ, les cellules sont ensuite traitées par ajout de 5 µl puit des molécules à tester à la concentration finale de 1 µM. Des cellules sont également traitées en parallèle avec un agoniste de référence, l'acide (-)-3-{4-[2-(Benzooxazol-2-yl-methyl-amino)-ethoxy]-phenyl}-2-ethoxy-propionique, 1 µM.
(§4) Après une nouvelle incubation de 24 heures à 37°C, 7% CO2, un dosage de la luciférase est effectué à l'aide du kit « Steady-Glo Luciferase Assay System » de Promega. Le comptage de la luminescence se fait sur un lecteur de microplaque Microbéta Trilux (Wallac).
(§5) L'activité agoniste du produit testé sera exprimée en pourcentage d'activation par rapport au témoin agoniste l'agoniste de référence à 1 µM.
(§6) L'AC50, exprimée en nM, est déterminée comme la concentration permettant d'obtenir 50% d'activation du signal basal par rapport à l'agoniste de référence.

[2] = molecular target: T2, récepteur chimère Gal-PPARα (Homo sapiens, UniProt Q07869); experiment: Transactivation test, same protocol with chimeric receptor Gal-PPARα; assay type: cell-based; conditions: Hela cells; for activation at 1 µM: 24 h, compound at 1 microM, percent of activation relative to reference agonist (Wy 14643 = 100%), read-out: % d'activation (à 1 microM) PPARα; for AC50: concentration giving 50% activation relative to reference agonist, read-out: AC50 (en nM) PPARα
T2 sequence (Q07869 167-468): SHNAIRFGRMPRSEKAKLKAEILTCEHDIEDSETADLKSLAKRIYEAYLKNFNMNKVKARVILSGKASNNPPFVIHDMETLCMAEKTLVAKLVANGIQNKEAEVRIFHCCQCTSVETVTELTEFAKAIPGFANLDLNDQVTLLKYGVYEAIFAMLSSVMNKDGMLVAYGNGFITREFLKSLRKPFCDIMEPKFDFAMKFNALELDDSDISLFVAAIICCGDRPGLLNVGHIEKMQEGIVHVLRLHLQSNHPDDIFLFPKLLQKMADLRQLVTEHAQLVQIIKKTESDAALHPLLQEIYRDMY
Description: De préférence, l'activateur des récepteurs de type PPARγ est spécifique, c'est à dire qu'il présente un rapport du pourcentage d'activation des récepteurs PPARγ, au pourcentage d'activation des récepteurs PPARα (calculé par rapport à un composé de référence, le Wy 14643, activant les PPARα de 100%) supérieur ou égal à 3. De préférence, ce rapport est supérieur ou égal à 5 et plus avantageusement supérieur ou égal à 10.
as §1, §2, §3, §4, §5
En appliquant ce même protocole avec le récepteur chimère Gal-PPARα, on peut mesurer l'activité agoniste des composés vis à vis des récepteurs PPAR alpha et ainsi la comparer avec celui du récepteur PPARγ.
as §6

CCO[C@@H](Cc1ccc(-c2cccc(CN(C)C(=O)c3ccc4cc(OCOCCOC)ccc4c3)c2)cc1)C(=O)O [Composé de l'exemple 23, Acide (S)-2-Ethoxy-3-{3'-[({1-[6-(2-methoxy-ethoxymethoxy)-naphthalen-2-yl]-methanoyl}-methyl-amino)-methyl]-biphenyl-4-yl}-propionique]
activation at 1 µM [1]: 90%
activation at 1 µM [2]: 11.9%

COC(=O)c1ccc(C(=O)N(C)Cc2cccc(-c3ccc(CC4SC(=O)NC4=O)cc3)c2)cc1 (stereo not drawn) [Composé de l'exemple 3, N-[4'-(2,4-Dioxo-thiazolidin-5-ylmethyl)-biphenyl-3-ylmethyl]-N-methyl-terephthalamatede méthyle]
activation at 1 µM [2]: 22.3%
AC50 [2]: > 50000 nM

CN(Cc1cccc(-c2ccc(CC3SC(=O)NC3=O)cc2)c1)C(=O)CCC1CCCC1 (stereo not drawn) [Composé de l'exemple 4, 3-Cyclopentyl-N-[4'-(2,4-dioxo-thiazolidin-5-ylmethyl)-biphenyl-3-ylmethyl]-N-methyl-propionamide]
activation at 1 µM [2]: 39.8%
AC50 [2]: > 50000 nM

CN(Cc1cccc(-c2ccc(CC3SC(=O)NC3=O)cc2)c1)C(=O)COc1ccccc1 (stereo not drawn) [Composé de l'exemple 7, N-[4'-(2,4-Dioxo-thiazolidin-5-ylmethyl)-biphenyl-3-ylmethyl]-N-methyl-2-phenoxy-acetamide]
activation at 1 µM [1]: 97.2%
activation at 1 µM [2]: 37.8%

CN(Cc1cccc(-c2ccc(CC3SC(=O)NC3=O)cc2)c1)C(=O)CCCCC(=O)c1ccccc1 (stereo not drawn) [Composé de l'exemple 12, N-[4'-(2,4-dioxo-thiazolidin-5-ylmethyl)-biphenyl-3-ylmethyl]-N-methyl-6-oxo-6-phenyl-hexanamide]
activation at 1 µM [1]: 168%
activation at 1 µM [2]: 12.3%
AC50 [2]: > 50000 nM

CN(Cc1cccc(-c2ccc(CC3SC(=O)NC3=O)cc2)c1)C(=O)c1ccc(N(C)C)c2ccccc12 (stereo not drawn) [Composé de l'exemple 13, 4-Dimethylamino-N-[4'-(2,4-dioxo-thiazolidin-5-ylmethyl)-biphenyl-3-ylmethyl]-N-methyl-naphthalene-1-carboxamide]
activation at 1 µM [1]: 112%
activation at 1 µM [2]: 13.4%
AC50 [2]: > 50000 nM

CN(Cc1cccc(-c2ccc(CC3SC(=O)NC3=O)cc2)c1)C(=O)C12CC3CC(CC(C3)C1)C2 (stereo not drawn) [Composé de l'exemple 9, N-[4'-(2,4-dioxo-thiazolidin-5-ylmethyl)-biphenyl-3-ylmethyl]-N-methyl-adamantane-1-carboxamide]
activation at 1 µM [1]: 106%
activation at 1 µM [2]: 4.3%

CN(Cc1cccc(-c2ccc(CC3SC(=O)NC3=O)cc2)c1)C(=O)c1ccc(C(=O)c2ccccc2)cc1 (stereo not drawn) [Composé de l'exemple 15, N-[4'-(2,4-Dioxo-thiazolidin-5-ylmethyl)-biphenyl-3-ylmethyl]-N-methyl-4-(1-phenyl-methanoyl)-benzamide]
activation at 1 µM [1]: 102%
activation at 1 µM [2]: 28.8%
AC50 [2]: > 50000 nM

COCCOCOc1ccc2cc(C(=O)N(C)Cc3cccc(-c4ccc(CC5SC(=O)NC5=O)cc4)c3)ccc2c1 (stereo not drawn) [Composé de l'exemple 16, 6-(2-Methoxy-ethoxymethoxy)-N-[4'-(2,4-dioxo-thiazolidin-5-ylmethyl)-biphenyl-3-ylmethyl]-N-methyl-naphthalene-2-carboxamide]
activation at 1 µM [1]: 93.3%
activation at 1 µM [2]: 22.9%
AC50 [2]: > 50000 nM

CN(Cc1cccc(-c2ccc(CC3SC(=O)NC3=O)cc2)c1)C(=O)c1ccc2cc(O)ccc2c1 (stereo not drawn) [Composé de l'exemple 17, 6-Hydroxy-N-[4'-(2,4-dioxo-thiazolidin-5-ylmethyl)-biphenyl-3-ylmethyl]-N-methyl-naphthalene-2-carboxamide]
activation at 1 µM [1]: 96.1%
activation at 1 µM [2]: 15.1%
AC50 [2]: > 50000 nM

CN(Cc1cccc(-c2ccc(CC3SC(=O)NC3=O)cc2)c1)C(=O)c1ccc(S(C)(=O)=O)cc1 (stereo not drawn) [Composé de l'exemple 14, N-[4'-(2,4-Dioxo-thiazolidin-5-ylmethyl)-biphenyl-3-ylmethyl]-4-methanesulfonyl-N-methyl-benzamide]
activation at 1 µM [1]: 76.7%
activation at 1 µM [2]: 19%

CN(Cc1cccc(-c2ccc(CC3SC(=O)NC3=O)cc2)c1)C(=O)c1cccn1C (stereo not drawn) [Composé de l'exemple 8, N-[4'-(2,4-dioxo-thiazolidin-5-ylmethyl)-biphenyl-3-ylmethyl]-N-methyl-1-Methyl-1H-pyrrole-2-carboxamide]
activation at 1 µM [1]: 97.2%
activation at 1 µM [2]: 33.6%

CN(Cc1cccc(-c2ccc(CC3SC(=O)NC3=O)cc2)c1)C(=O)c1cc2ccccc2s1 (stereo not drawn) [Composé de l'exemple 11, N-[4'-(2,4-dioxo-thiazolidin-5-ylmethyl)-biphenyl-3-ylmethyl]-N-methyl-benzo[b]thiophene-2-carboxamide]
activation at 1 µM [1]: 90.1%
activation at 1 µM [2]: 13.2%
AC50 [2]: > 50000 nM

CCO[C@@H](Cc1ccc(-c2cccc(CN(C)C(=O)c3ccc(-c4ccccc4)cc3)c2)cc1)C(=O)O [Composé de l'exemple 19, Acide (S)-3-(3'-{[(1-Biphenyl-4-yl-methanoyl)-methyl-amino]-methyl}-biphenyl-4-yl)-2-ethoxy-propionique]
activation at 1 µM [1]: 102%
activation at 1 µM [2]: 100%
AC50 [2]: > 50000 nM

CCO[C@@H](Cc1ccc(-c2cccc(CN(C)C(=O)CCCCC(=O)c3ccccc3)c2)cc1)C(=O)O [Composé de l'exemple 20, Acide (S)-2-Ethoxy-3-(3'-{[methyl-(6-oxo-6-phenyl-hexanoyl)-amino]-methyl}-biphenyl-4-yl)-propionique]
activation at 1 µM [1]: 114%
activation at 1 µM [2]: 41.9%
AC50 [2]: > 50000 nM

CN(C)c1ccc(NC(=O)N(C)c2cccc(-c3ccc(CC4SC(=O)NC4=O)cc3)c2)cc1 (stereo not drawn) [Composé de l'exemple 22, 3-(4-Dimethylamino-phenyl)-1-[4'-(2,4-dioxo-thiazolidin-5-ylmethyl)-biphenyl-3-yl]-1-methyl-urée]
activation at 1 µM [1]: 108%
activation at 1 µM [2]: -3.9%

CN(Cc1cccc(-c2ccc(CC3SC(=O)NC3=O)cc2)c1)C(=O)c1cccc2ccccc12 (stereo not drawn) [Composé de l'exemple 5, N-[4'-(2,4-dioxo-thiazolidin-5-ylmethyl)-biphenyl-3-ylmethyl]-N-methyl-naphthalene-1-carboxamide]
activation at 1 µM [2]: 26.6%
AC50 [2]: > 50000 nM

COC(=O)CCCCCCCCC(=O)N(C)Cc1cccc(-c2ccc(CC3SC(=O)NC3=O)cc2)c1 (stereo not drawn) [Composé de l'exemple 2, 9-{[4'-(2,4-Dioxo-thiazolidin-5-ylmethyl)-biphenyl-3-ylmethyl]-methyl-carbamoyl}-nonanoatede méthyle]
activation at 1 µM [2]: 13.7%

CSc1ccc(C(=O)N(C)Cc2cccc(-c3ccc(CC4SC(=O)NC4=O)cc3)c2)cc1 (stereo not drawn) [Composé de l'exemple 18, N-[4'-(2,4-Dioxo-thiazolidin-5-ylmethyl)-biphenyl-3-ylmethyl]-N-methyl-4-methylsulfanyl-benzamide]
activation at 1 µM [1]: 90.7%
activation at 1 µM [2]: 37.3%
AC50 [2]: > 50000 nM

CN(Cc1cccc(-c2ccc(CC3SC(=O)NC3=O)cc2)c1)C(=O)c1ccc2ccccc2c1 (stereo not drawn) [Composé de l'exemple 6, N-[4'-(2,4-dioxo-thiazolidin-5-ylmethyl)-biphenyl-3-ylmethyl]-N-methyl-naphthalene-2-carboxamide]
activation at 1 µM [2]: 7.9%
AC50 [2]: > 50000 nM
